# From ChEMBL document CHEMBL1136334, “Synthesis and biological evaluation of 4-[(3-methyl-3H-imidazol-4-yl)-(2-phenylethynyl-benzyloxy)-methyl]-benzonitrile as novel farnesyltransferase inhibitor” (Bioorg Med Chem Lett, 2003)
# pEC50, pIC50: −log10 of the molar value.
# How the values were obtained:
# NIH3T3 = assay: In vitro reduction of farnesylation in NIH-3T3H-ras cell line.; assay type: functional, cell-based; details: Mus musculus
# [1] = biological target: Protein farnesyl/geranylgeranyl transferase (Homo sapiens) (UniProt P49354+P49356+P53609); assay: Selectivity ratio of IC50 Geranylgeranyl transferase to that of IC50 Farnesyltransferase; assay type: protein-complex assay
# [2] = biological target: Protein farnesyltransferase (Homo sapiens, UniProt P49354+P49356); assay: In vitro inhibition of the human FTase-catalyzed incorporation of [3H]FPP into recombinant Ras CVIM.; assay type: protein-complex assay
# [3] = biological target: Geranylgeranyl transferase type I (Homo sapiens, UniProt P49354+P53609); assay: In vitro inhibition of the human Geranylgeranyl transferase-catalyzed incorporation of [3H]GGPP into biotinylated peptide corresponding to the C-terminal of human K-Ras.; assay type: protein-complex assay
Selectivity [1],pIC50 [2],pIC50 [3],SMILES,pEC50 (NIH3T3)
> 1000,8.00,< 5.00,Cn1cncc1C(OCc1ccc(C#N)cc1C#Cc1ccc(-c2ccccc2)cc1)c1ccc(C#N)cc1 (centres undefined),< 10.00
169,8.89,6.66,CCC/C=C/C=C/c1cc(C#N)ccc1COC(c1ccc(C#N)cc1)c1cncn1C (centres undefined),7.78
1300,9.00,5.89,Cn1cncc1C(OCc1ccc(C#N)cc1C#Cc1cccc(O)c1)c1ccc(C#N)cc1 (centres undefined),< 10.00
1120,8.80,5.74,Cn1cncc1C(OCc1ccc(C#N)cc1/C=C/c1ccccn1)c1ccc(C#N)cc1 (centres undefined),7.64
180,9.21,6.96,Cn1cncc1C(OCc1ccc(C#N)cc1/C=C/c1ccc([N+](=O)[O-])cc1)c1ccc(C#N)cc1 (centres undefined),8.65
1900,9.02,5.74,Cn1cncc1C(OCc1ccc(C#N)cc1C#Cc1ccccc1)c1ccc(C#N)cc1 (centres undefined),10.00
941,8.77,5.80,Cn1cncc1C(OCc1ccc(C#N)cc1C#CCCCCO)c1ccc(C#N)cc1 (centres undefined),7.68
326,9.02,6.51,Cn1cncc1C(OCc1ccc(C#N)cc1CCC(C)(C)C)c1ccc(C#N)cc1 (centres undefined),9.27
386,8.85,6.27,Cn1cncc1C(OCc1ccc(C#N)cc1C#CCCc1ccccc1)c1ccc(C#N)cc1 (centres undefined),6.89
971,9.06,6.07,Cn1cncc1C(OCc1ccc(C#N)cc1C#CC1(O)CCCCC1)c1ccc(C#N)cc1 (centres undefined),8.71
136,8.96,6.82,Cn1cncc1C(OCc1ccc(C#N)cc1-c1ccc(-c2ccccc2)cc1)c1ccc(C#N)cc1 (centres undefined),> 10.00
273,9.26,6.82,Cn1cncc1C(OCc1ccc(C#N)cc1C#Cc1ccc([N+](=O)[O-])cc1)c1ccc(C#N)cc1 (centres undefined),7.44
178,9.05,6.80,CCCCCCC#Cc1cc(C#N)ccc1COC(c1ccc(C#N)cc1)c1cncn1C (centres undefined),< 10.00
5520,8.54,4.80,Cn1cncc1C(OCc1ccc(C#N)cc1C#Cc1ccccn1)c1ccc(C#N)cc1 (centres undefined),< 10.00
196,9.20,6.91,Cn1cncc1C(OCc1ccc(C#N)cc1C#Cc1ccc(C#N)cc1)c1ccc(C#N)cc1 (centres undefined),7.94
–,–,–,Cn1cncc1C(OCc1ccc(C#N)cc1-c1ccccc1)c1ccc(C#N)cc1 (centres undefined),6.85
790,9.21,6.31,Cn1cncc1C(OCc1ccc(C#N)cc1C#CC(C)(C)C)c1ccc(C#N)cc1 (centres undefined),7.11
6900,8.89,5.05,Cn1cncc1C(OCc1ccc(C#N)cc1-c1ccc(C#N)cc1)c1ccc(C#N)cc1 (centres undefined),> 10.00
